In ChEMBL document CHEMBL5346973 (J Med Chem, 2023):
Active and inactive are the calls of the source. The rule behind the calls is not given here.

Key:
[1] = biological target: Nicotinic acetylcholine receptor alpha9/alpha10 (Rattus norvegicus, UniProt P43144+Q9JLB5); assay: Antagonist activity at rat alpha9alpha10 nACh receptor expressed in Xenopus oocyte assessed as inhibition of acetylcholine-induced response at -70 mV holding potential by voltage-clamp based electrophysiological assay; type: cell-based
[2] = biological target: Neuronal acetylcholine receptor; alpha3/beta2 (Rattus norvegicus, UniProt P04757+P12390); assay: Antagonist activity at rat alpha3beta2 nACh receptor expressed in Xenopus oocyte assessed as inhibition of acetylcholine-induced response at -70 mV holding potential by voltage-clamp based electrophysiological assay; type: cell-based
[3] = Stability of the compound in human serum assessed as compound remaining after 6 hr by UPLC analysis; type: ADME, cell-free
[4] = biological target: Neuronal acetylcholine receptor subunit alpha-7 (Rattus norvegicus, UniProt Q05941); assay: Antagonist activity at rat alpha7 nACh receptor expressed in Xenopus oocyte assessed as inhibition of acetylcholine-induced response at -70 mV holding potential by voltage-clamp based electrophysiological assay; type: cell-based
[5] = biological target: Neuronal acetylcholine receptor; alpha4/beta2 (Rattus norvegicus, UniProt P09483+P12390); assay: Antagonist activity at rat alpha4beta2 nACh receptor expressed in Xenopus oocyte assessed as inhibition of acetylcholine-induced response at -70 mV holding potential by voltage-clamp based electrophysiological assay; type: cell-based
[6] = biological target: Neuronal acetylcholine receptor; alpha2/beta4 (Rattus norvegicus, UniProt P12389+P12392); assay: Antagonist activity at rat alpha2beta4 nACh receptor expressed in Xenopus oocyte assessed as inhibition of acetylcholine-induced response at -70 mV holding potential by voltage-clamp based electrophysiological assay; type: cell-based
[7] = biological target: Neuronal acetylcholine receptor; alpha4/beta4 (Rattus norvegicus, UniProt P09483+P12392); assay: Antagonist activity at rat alpha4beta4 nACh receptor expressed in Xenopus oocyte assessed as inhibition of acetylcholine-induced response at -70 mV holding potential by voltage-clamp based electrophysiological assay; type: cell-based
[8] = biological target: T1, Neuronal acetylcholine receptor; alpha9/alpha10 (Homo sapiens) (UniProt Q9UGM1+Q9GZZ6); assay: Antagonist activity at human alpha9alpha10 nACh receptor expressed in Xenopus oocyte assessed as inhibition of acetylcholine-induced response at -70 mV holding potential by measuring leftward shit in concentration response curve at 10 nM by voltage-clamp based electrophysiological assay; type: cell-based; conditions: filed as antagonist
[9] = biological target: Neuronal acetylcholine receptor; alpha3/beta4 (Rattus norvegicus, UniProt P04757+P12392); assay: Antagonist activity at rat alpha3beta4 nACh receptor expressed in Xenopus oocyte assessed as inhibition of acetylcholine-induced response at -70 mV holding potential by voltage-clamp based electrophysiological assay; type: cell-based
[10] = biological target: T1, Neuronal acetylcholine receptor; alpha9/alpha10 (Homo sapiens); assay: Antagonist activity at human alpha9alpha10 nACh receptor expressed in Xenopus oocyte assessed as inhibition of acetylcholine-induced response at -70 mV holding potential by measuring current response at 10 nM by voltage-clamp based electrophysiological assay; type: cell-based; conditions: filed as antagonist
[11] = biological target: Nicotinic acetylcholine receptor alpha9/alpha10 (Rattus norvegicus) (UniProt P43144+Q9JLB5); assay: Antagonist activity at rat alpha9alpha10 nACh receptor expressed in Xenopus oocyte assessed as inhibition of acetylcholine-induced response at -70 mV holding potential by measuring recovery at 10 nM after 5 mins by voltage-clamp based electrophysiological assay relative to control; type: cell-based; conditions: filed as antagonist
[12] = biological target: Nicotinic acetylcholine receptor alpha6/alpha3/beta4 (Rattus norvegicus, UniProt P04757+P12392+P43143); assay: Antagonist activity at rat alpha6/alpha3beta4 nACh receptor expressed in Xenopus oocyte assessed as inhibition of acetylcholine-induced response at -70 mV holding potential by voltage-clamp based electrophysiological assay; type: cell-based
[13] = biological target: Neuronal acetylcholine receptor; alpha9/alpha10 (Homo sapiens, UniProt Q9GZZ6+Q9UGM1); assay: Antagonist activity at human alpha9alpha10 nACh receptor expressed in Xenopus oocyte assessed as inhibition of acetylcholine-induced response at -70 mV holding potential by voltage-clamp based electrophysiological assay; type: cell-based
[14] = biological target: Neuronal acetylcholine receptor; alpha2/beta2 (Rattus norvegicus, UniProt P12389+P12390); assay: Antagonist activity at rat alpha2beta2 nACh receptor expressed in Xenopus oocyte assessed as inhibition of acetylcholine-induced response at -70 mV holding potential by voltage-clamp based electrophysiological assay; type: cell-based
Sequence of Neuronal acetylcholine receptor; alpha2/beta2 (P12389 whole entry): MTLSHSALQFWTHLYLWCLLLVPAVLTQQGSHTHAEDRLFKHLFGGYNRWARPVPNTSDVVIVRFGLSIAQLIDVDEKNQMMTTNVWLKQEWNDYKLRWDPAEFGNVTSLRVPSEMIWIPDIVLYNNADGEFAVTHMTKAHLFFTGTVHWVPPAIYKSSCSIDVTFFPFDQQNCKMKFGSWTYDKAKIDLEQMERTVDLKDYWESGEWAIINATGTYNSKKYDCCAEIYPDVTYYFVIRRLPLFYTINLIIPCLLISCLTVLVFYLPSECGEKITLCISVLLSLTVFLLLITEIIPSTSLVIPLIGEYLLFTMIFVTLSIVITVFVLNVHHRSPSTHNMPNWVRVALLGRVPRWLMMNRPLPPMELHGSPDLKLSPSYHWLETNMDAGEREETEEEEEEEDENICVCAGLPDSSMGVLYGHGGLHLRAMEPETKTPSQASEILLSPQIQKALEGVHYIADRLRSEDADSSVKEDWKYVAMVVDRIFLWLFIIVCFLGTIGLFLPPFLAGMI
Sequence of Neuronal acetylcholine receptor; alpha2/beta2 (P12390 whole entry): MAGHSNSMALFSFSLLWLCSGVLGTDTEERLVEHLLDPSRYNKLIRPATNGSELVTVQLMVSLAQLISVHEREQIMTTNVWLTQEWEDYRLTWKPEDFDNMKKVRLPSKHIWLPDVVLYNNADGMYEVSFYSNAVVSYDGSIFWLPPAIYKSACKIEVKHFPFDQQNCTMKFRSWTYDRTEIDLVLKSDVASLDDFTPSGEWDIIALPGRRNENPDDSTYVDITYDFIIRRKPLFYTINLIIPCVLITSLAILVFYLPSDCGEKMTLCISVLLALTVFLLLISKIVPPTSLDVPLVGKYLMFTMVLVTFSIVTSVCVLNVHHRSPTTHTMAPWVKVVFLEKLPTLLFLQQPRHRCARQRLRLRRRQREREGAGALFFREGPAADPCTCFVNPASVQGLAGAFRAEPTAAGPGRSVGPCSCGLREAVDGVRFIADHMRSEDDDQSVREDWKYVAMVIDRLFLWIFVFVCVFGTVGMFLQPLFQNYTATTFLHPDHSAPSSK

Sequence of Neuronal acetylcholine receptor; alpha2/beta4 (P12389 whole entry): as the sequence (P12389 whole entry) above
Sequence of Neuronal acetylcholine receptor; alpha2/beta4 (P12392 whole entry): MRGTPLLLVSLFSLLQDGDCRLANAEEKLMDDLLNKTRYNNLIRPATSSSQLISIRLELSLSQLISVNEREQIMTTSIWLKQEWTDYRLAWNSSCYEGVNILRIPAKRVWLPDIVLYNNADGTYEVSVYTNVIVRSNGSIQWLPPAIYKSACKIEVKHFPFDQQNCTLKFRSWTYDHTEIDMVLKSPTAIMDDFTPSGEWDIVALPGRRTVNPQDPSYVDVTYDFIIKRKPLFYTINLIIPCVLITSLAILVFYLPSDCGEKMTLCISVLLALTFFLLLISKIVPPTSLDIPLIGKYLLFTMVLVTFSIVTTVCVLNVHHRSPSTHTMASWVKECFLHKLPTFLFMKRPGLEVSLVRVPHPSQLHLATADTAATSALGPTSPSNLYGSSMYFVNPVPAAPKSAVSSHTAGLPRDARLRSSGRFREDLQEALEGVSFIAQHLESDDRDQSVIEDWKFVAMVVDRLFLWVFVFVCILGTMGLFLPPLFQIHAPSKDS
Sequence of Nicotinic acetylcholine receptor alpha9/alpha10 (P43144 whole entry): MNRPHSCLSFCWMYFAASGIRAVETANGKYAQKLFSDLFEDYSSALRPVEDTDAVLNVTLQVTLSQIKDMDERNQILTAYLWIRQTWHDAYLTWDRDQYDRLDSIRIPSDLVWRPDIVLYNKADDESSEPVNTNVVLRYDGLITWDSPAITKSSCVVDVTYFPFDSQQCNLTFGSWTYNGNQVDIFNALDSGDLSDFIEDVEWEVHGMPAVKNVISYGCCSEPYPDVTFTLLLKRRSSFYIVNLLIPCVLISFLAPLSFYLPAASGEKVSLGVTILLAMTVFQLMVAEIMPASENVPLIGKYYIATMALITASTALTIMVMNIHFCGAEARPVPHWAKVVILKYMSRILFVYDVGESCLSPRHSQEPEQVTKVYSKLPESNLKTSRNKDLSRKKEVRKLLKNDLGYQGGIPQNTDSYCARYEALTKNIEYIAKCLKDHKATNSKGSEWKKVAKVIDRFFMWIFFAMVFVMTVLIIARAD
Sequence of Nicotinic acetylcholine receptor alpha9/alpha10 (Q9JLB5 whole entry): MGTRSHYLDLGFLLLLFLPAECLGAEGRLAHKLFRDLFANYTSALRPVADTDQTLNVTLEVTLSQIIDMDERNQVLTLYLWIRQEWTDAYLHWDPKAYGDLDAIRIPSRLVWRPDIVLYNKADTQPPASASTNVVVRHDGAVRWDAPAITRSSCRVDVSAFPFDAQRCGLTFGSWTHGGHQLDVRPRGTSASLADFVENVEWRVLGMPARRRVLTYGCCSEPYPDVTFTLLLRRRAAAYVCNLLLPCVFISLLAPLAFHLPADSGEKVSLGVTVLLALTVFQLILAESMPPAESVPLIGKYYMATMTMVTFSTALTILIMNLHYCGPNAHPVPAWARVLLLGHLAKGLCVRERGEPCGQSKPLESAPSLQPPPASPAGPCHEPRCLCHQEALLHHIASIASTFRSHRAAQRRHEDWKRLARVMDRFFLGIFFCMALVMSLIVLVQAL
Sequence of Neuronal acetylcholine receptor; alpha9/alpha10 (Q9UGM1 whole entry): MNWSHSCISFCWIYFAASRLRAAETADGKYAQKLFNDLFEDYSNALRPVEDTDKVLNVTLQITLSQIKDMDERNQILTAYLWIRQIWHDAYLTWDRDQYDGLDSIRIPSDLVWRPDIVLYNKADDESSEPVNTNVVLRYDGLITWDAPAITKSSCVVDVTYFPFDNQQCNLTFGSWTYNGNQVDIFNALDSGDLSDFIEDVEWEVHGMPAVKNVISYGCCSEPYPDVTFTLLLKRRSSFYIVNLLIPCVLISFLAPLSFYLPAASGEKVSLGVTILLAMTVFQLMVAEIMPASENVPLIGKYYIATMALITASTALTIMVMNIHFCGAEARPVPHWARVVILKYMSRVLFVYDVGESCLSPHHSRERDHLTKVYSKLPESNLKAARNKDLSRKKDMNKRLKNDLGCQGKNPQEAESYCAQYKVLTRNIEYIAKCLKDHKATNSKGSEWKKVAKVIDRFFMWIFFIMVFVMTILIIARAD
Sequence of Neuronal acetylcholine receptor; alpha9/alpha10 (Q9GZZ6 whole entry): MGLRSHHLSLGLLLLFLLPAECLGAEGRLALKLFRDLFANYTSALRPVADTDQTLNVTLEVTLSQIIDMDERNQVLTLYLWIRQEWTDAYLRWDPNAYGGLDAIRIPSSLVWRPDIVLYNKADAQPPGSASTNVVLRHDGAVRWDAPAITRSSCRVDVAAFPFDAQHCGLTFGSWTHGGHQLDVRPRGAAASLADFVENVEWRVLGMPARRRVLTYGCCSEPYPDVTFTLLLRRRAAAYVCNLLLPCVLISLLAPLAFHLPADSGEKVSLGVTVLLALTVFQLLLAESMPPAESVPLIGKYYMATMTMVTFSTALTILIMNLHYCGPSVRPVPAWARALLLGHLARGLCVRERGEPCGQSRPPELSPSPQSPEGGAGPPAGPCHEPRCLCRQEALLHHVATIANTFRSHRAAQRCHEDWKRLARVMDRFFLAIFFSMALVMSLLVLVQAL
Sequence of Neuronal acetylcholine receptor; alpha3/beta4 (P04757 whole entry): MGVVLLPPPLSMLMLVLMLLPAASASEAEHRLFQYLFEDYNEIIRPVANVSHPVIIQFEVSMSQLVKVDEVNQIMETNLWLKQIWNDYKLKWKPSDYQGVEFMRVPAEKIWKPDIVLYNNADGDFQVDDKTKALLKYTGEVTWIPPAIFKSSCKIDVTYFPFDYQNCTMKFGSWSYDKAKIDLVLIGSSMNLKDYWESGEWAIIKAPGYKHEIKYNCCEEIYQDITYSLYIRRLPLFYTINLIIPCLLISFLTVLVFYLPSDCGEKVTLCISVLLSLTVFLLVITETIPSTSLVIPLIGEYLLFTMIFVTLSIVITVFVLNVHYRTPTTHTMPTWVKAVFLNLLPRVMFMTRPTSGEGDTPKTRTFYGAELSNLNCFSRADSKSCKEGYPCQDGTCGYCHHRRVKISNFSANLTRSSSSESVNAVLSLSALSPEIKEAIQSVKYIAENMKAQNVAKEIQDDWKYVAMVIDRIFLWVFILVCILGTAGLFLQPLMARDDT
Sequence of Neuronal acetylcholine receptor; alpha3/beta4 (P12392 whole entry): as the sequence (P12392 whole entry) above
Sequence of Nicotinic acetylcholine receptor alpha6/alpha3/beta4 (P04757 whole entry): as the sequence (P04757 whole entry) above
Sequence of Nicotinic acetylcholine receptor alpha6/alpha3/beta4 (P12392 whole entry): as the sequence (P12392 whole entry) above
Sequence of Nicotinic acetylcholine receptor alpha6/alpha3/beta4 (P43143 whole entry): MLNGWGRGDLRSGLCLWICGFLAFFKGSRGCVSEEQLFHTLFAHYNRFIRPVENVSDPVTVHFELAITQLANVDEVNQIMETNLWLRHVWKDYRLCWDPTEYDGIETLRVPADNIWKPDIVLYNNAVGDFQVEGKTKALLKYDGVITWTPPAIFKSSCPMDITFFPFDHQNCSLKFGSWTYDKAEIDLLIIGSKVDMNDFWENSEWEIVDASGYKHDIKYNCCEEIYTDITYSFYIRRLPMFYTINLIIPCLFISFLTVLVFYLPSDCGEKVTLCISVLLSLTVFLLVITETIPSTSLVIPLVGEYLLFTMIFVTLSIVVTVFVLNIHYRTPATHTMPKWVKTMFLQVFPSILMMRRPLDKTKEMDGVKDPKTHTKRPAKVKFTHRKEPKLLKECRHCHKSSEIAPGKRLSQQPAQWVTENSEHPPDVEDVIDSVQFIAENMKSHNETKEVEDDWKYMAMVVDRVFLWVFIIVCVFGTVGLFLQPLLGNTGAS
Sequence of Neuronal acetylcholine receptor; alpha3/beta2 (P04757 whole entry): as the sequence (P04757 whole entry) above
Sequence of Neuronal acetylcholine receptor; alpha3/beta2 (P12390 whole entry): as the sequence (P12390 whole entry) above

SMILES: CC(C)[C@H](NC(=O)[C@@H]1CSSC[C@H](NC(=O)[C@@H](N)[C@@H](C)O)C(=O)N[C@@H](CCCNC(=N)N)C(=O)N[C@@H](CO)C(=O)N[C@@H](CO)C(=O)NCC(=O)N[C@@H](CCCNC(=N)N)C(=O)N[C@@H](Cc2ccc(O)cc2)C(=O)N[C@H]2CSSC[C@H](NC(=O)[C@H](Cc3ccc(O)cc3)NC(=O)[C@H](CCCNC(=N)N)NC(=O)[C@H](CCCNC(=N)N)NC(=O)[C@H](CCCNC(=N)N)NC(=O)[C@H](CCCNC(=N)N)NC(=O)[C@H](CC(=O)O)NC(=O)[C@H](Cc3ccc(O)cc3)NC(=O)[C@@H]3CCCN3C(=O)[C@H](CO)NC(=O)[C@H](CCCNC(=N)N)NC2=O)C(=O)N[C@@H](CCCNC(=N)N)C(=O)N[C@@H](CCCNC(=N)N)C(=O)N[C@@H](C)C(=O)N[C@@H]([C@@H](C)O)C(=O)N[C@@H](CC(=O)O)C(=O)N[C@@H](C)C(=O)N1)C(=O)O
- IC50 [1]: 0.0014 µM
- IC50 [2]: 1.46 µM
- Stability [3]: Stable
- IC50 [4]: 1.36 µM
- IC50 [5]: 3.15 µM
- IC50 [6]: 3.65 µM
- IC50 [7]: 8.24 µM
- inhibition [8]: Active
- IC50 [9]: 6.03 µM
- inhibition [10]: 60%
- Activity [11]: Active
- IC50 [12]: 4.01 µM
- IC50 [13]: 0.011 µM
- IC50 [14]: 2.99 µM
